Measured values: patent publication US11291646B2, “Nozzle assembly and methods for use” (CRITITECH, INC., priority 2015, dated 2022)

Assay: Bulk density
Format: physicochemical
Settings: docetaxel; room temperature
Experimental: The mass of the drug was measured to a nearest 0.1 mg, the volume was determined to the nearest 0.1 mL and the density calculated.

CC(=O)O[C@@]12CO[C@@H]1C[C@H](O)[C@@]1(C)C(=O)[C@H](O)C3=C(C)[C@@H](OC(=O)[C@H](O)[C@@H](NC(=O)OC(C)(C)C)c4ccccc4)C[C@@](O)([C@@H](OC(=O)c4ccccc4)[C@H]21)C3(C)C [Docetaxel Raw Material, docetaxel]
Bulk Density: 0.24 g/cm3
